From patent publication US4364953A, “2-0- and 5-0-Substituted 1.4;3.6-dianhydrohexitol mononitrates and pharmaceutical composition” (Firma Willmar Schwabe, priority 1980, dated 1982)
Where two headings read alike, the source gives them in different places.

Experiments:
[1] = system: isolated guinea pig hearts; test: Experiments on the Langendorff heart (isolated guinea pig hearts); conditions: Cavia porcellus, 25 μg./ml. test substance in 50 ml. tyrode solution, average of 3-6 hearts
[2] = system: isolated rat aorta preparations
From the text: Here, too, ISDN and ISMN were chosen as comparison compounds.

[3] = system: narcotised guinea pigs; test: Blood pressure experiments on the narcotised guinea pig (i.v.); conditions: for blood pressure afterwards: after administration; for blood pressure previously: before administration (baseline); for blood pressure-lowering effectiveness compared with ISMN and ISDN: in words, guinea pig i.v., Table III
[4] = system: female NMRI-albino mice; test: Acute toxicity, intravenous, female NMRI-albino mice; conditions: for Frequency of death with an intravenous dose of 100 mg/kg: 100 mg/kg i.v. as hydrochloride in physiological saline; for Frequency of death with an intravenous dose of 100 mg/kg / Frequency of death with an intravenous dose of 200 mg/kg: death within 24 hours, dead/treated; for Frequency of death with an intravenous dose of 200 mg/kg: 200 mg/kg i.v. as hydrochloride in physiological saline
Method: (§1) The compounds were injected to at least 3 animals per dose. If no animal had yet been died following to the highest dose which was administered, no more doses of substances were tested. In case of doubt, the examination was repeated with at least 3 more animals applying the same dose.
(§2) The rate of death within 24 hours after administration was observed.

[5] = in vivo; conditions: mouse, iv, Evaluated LD50 -range, mice, as hydrochloride
Method: as §1, §2

[6] = system: mongrel cats; test: Heart-circulation effectiveness in narcotised mongrel cats, intraduodenal administration; conditions: 5 mg/kg intraduodenal, cat
Method: The animals were narcotised with a mixture of chloralose-urethane (1.2 g./kg. urethane+40 mg./kg chloralose administered i.p.). They breathed spontaneously through a tracheal canula. The A. carotis was used in order to place a catheter tip manometer in the left heart chamber. The V. jugularis served for injection purposes. Via the A. femoralis, a catheter was inserted into the Aorta descendans and attached to a pressure recorder (Statham P 23 Db). The heart frequency was recorded with a pulse frequency measurer (firm Hugo Sachs Elektronik) from the left ventricular pressure signal. A duodenal loop was exposed by laparotomy. The substances to be tested were injected directly into the lumen.

[7] = read-out: flowthrough, percentage change in comparison with the initial value
[8] = read-out: frequency, percentage change in comparison with the initial value
[9] = read-out: inotropism, percentage change in comparison with the initial value
[10] = read-out: noradrenaline spasm, […]
[11] = read-out: potassium chloride spasm, […]
[12] = 0 min (baseline), average ± standard error, 6 animals

Question: For `O=[N+]([O-])O[C@H]1CO[C@H]2[C@@H]1OC[C@@H]2Oc1ccc(Cl)cc1` [Example 1c, 5-O-(4-Chlorophenyl)-1.4;3.6-dianhydro-L-iditol 2-nitrate], which activation at 25 µg/mL [1, 7] is on record?
Answer: The activation at 25 µg/mL was 19.8%.

Question: What about the activation at 25 µg/mL [1, 8] of the same compound?
Answer: Its activation at 25 µg/mL is 2.89%.

Question: What about the activation at 25 µg/mL [1, 9] of the same compound?
Answer: Its activation at 25 µg/mL is 12.2%.

Question: And the IC50 [2, 10]?
Answer: Its IC50 is 0.14 µM.

Question: What about the IC50 [2, 11] of the same compound?
Answer: Its IC50 is 3.18 µM.

Question: What about the “blood pressure Δ” value ([3]; 0.25 mg/kg i.v.) of the same compound?
Answer: Its value is -1.60 mm.Hg.

Question: What about the blood pressure afterwards ([3]; 0.25 mg/kg i.v.) of the same compound?
Answer: Its blood pressure afterwards is 59.70 ± 2.40 mm.Hg.

Question: What about the blood pressure previously ([3]; 0.25 mg/kg i.v.) of the same compound?
Answer: The blood pressure previously was 61.30 ± 2.60 mm.Hg.

Question: What about the “blood pressure Δ” value ([3]; 1.00 mg/kg i.v.) of the same compound?
Answer: The value was -15.00 mm.Hg.

Question: And the blood pressure afterwards ([3]; 1.00 mg/kg i.v.)?
Answer: Its blood pressure afterwards is 46.90 ± 1.20 mm.Hg.

Question: And the blood pressure previously ([3]; 1.00 mg/kg i.v.)?
Answer: The blood pressure previously was 61.90 ± 1.90 mm.Hg.

Question: And the “blood pressure Δ” value ([3]; 2.50 mg/kg i.v.)?
Answer: Its value is -23.00 mm.Hg.

Question: And the blood pressure afterwards ([3]; 2.50 mg/kg i.v.)?
Answer: Its blood pressure afterwards is 37.60 ± 1.00 mm.Hg.

Question: What about the blood pressure previously ([3]; 2.50 mg/kg i.v.) of the same compound?
Answer: The blood pressure previously was 60.60 ± 1.80 mm.Hg.

Question: For `O=C(O[C@H]1CO[C@H]2[C@@H]1OC[C@@H]2O[N+](=O)[O-])c1cccnc1` [Example 2b, 1.4;3.6-Dianhydro-L-iditol 2-nitrate 5-nicotinate], which “Frequency of death with an intravenous dose of 100 mg/kg” value [4] is on record?
Answer: The value was 0/6.

Question: What about the “Frequency of death with an intravenous dose of 200 mg/kg” value [4] of the same compound?
Answer: Its value is 2/6.

Question: And the LD50 at 24 h [5]?
Answer: The LD50 at 24 h was at least 200 mg/kg.

Question: What about the activation at 25 µg/mL [1, 7] of the same compound?
Answer: The activation at 25 µg/mL was 35.4%.

Question: What about the activation at 25 µg/mL [1, 8] of the same compound?
Answer: Its activation at 25 µg/mL is 0%.

Question: What about the activation at 25 µg/mL [1, 9] of the same compound?
Answer: Its activation at 25 µg/mL is 3.36%.

Question: And the IC50 [2, 10]?
Answer: Its IC50 is 0.28 µM.

Question: And the IC50 [2, 11]?
Answer: The IC50 was 3.1 µM.

Question: And the “blood pressure Δ” value ([3]; 0.25 mg/kg i.v.)?
Answer: The value was -11.40 mm.Hg.

Question: And the blood pressure afterwards ([3]; 0.25 mg/kg i.v.)?
Answer: Its blood pressure afterwards is 47.30 ± 2.60 mm.Hg.

Question: And the blood pressure previously ([3]; 0.25 mg/kg i.v.)?
Answer: The blood pressure previously was 58.70 ± 4.30 mm.Hg.

Question: And the “blood pressure Δ” value ([3]; 1.00 mg/kg i.v.)?
Answer: The value was -15.60 mm.Hg.

Question: And the blood pressure afterwards ([3]; 1.00 mg/kg i.v.)?
Answer: The blood pressure afterwards was 42.70 ± 1.80 mm.Hg.

Question: What about the blood pressure previously ([3]; 1.00 mg/kg i.v.) of the same compound?
Answer: The blood pressure previously was 58.30 ± 2.00 mm.Hg.

Question: And the “blood pressure Δ” value ([3]; 2.50 mg/kg i.v.)?
Answer: The value was -20.70 mm.Hg.

Question: What about the blood pressure afterwards ([3]; 2.50 mg/kg i.v.) of the same compound?
Answer: The blood pressure afterwards was 33.00 ± 1.00 mm.Hg.

Question: And the blood pressure previously ([3]; 2.50 mg/kg i.v.)?
Answer: The blood pressure previously was 53.70 ± 3.30 mm.Hg.

Question: And the “blood pressure-lowering effectiveness compared with ISMN and ISDN” value [3]?
Answer: The value was “actions similar to those of ISDN”.

Question: Which results are given for `CS(=O)(=O)O[C@@H]1CO[C@H]2[C@@H]1OC[C@@H]2O[N+](=O)[O-]` [Example 4, 1.4;3.6-Dianhydro-D-glucitol 2-nitrate 5-methanesulphonate]?
Answer: activation at 25 µg/mL [1, 7]: 44.3%; activation at 25 µg/mL [1, 8]: 0%; activation at 25 µg/mL [1, 9]: 0%; IC50 [2, 10]: 2.2 µM; IC50 [2, 11]: 2.8 µM

Question: For `O=C(O[C@@H]1CO[C@H]2[C@@H]1OC[C@@H]2O[N+](=O)[O-])c1cccnc1` [Example 5b, 1.4;3.6-Dianhydro-D-glucitol 2-nitrate 5-nicotinate], which “Frequency of death with an intravenous dose of 100 mg/kg” value [4] is on record?
Answer: The value was 0/6.

Question: And the LD50 at 24 h [5]?
Answer: The LD50 at 24 h was over 100 mg/kg.

Question: And the activation at 25 µg/mL [1, 7]?
Answer: The activation at 25 µg/mL was 23.6%.

Question: What about the activation at 25 µg/mL [1, 8] of the same compound?
Answer: The activation at 25 µg/mL was -9.13%.

Question: And the activation at 25 µg/mL [1, 9]?
Answer: Its activation at 25 µg/mL is 15.8%.

Question: And the IC50 [2, 10]?
Answer: Its IC50 is 6.2 µM.

Question: And the IC50 [2, 11]?
Answer: The IC50 was 22.5 µM.

Question: And the “blood pressure Δ” value ([3]; 0.25 mg/kg i.v.)?
Answer: The value was -7.70 mm.Hg.

Question: And the blood pressure afterwards ([3]; 0.25 mg/kg i.v.)?
Answer: The blood pressure afterwards was 55.00 ± 1.00 mm.Hg.

Question: And the blood pressure previously ([3]; 0.25 mg/kg i.v.)?
Answer: Its blood pressure previously is 62.70 ± 3.00 mm.Hg.

Question: What about the “blood pressure Δ” value ([3]; 1.00 mg/kg i.v.) of the same compound?
Answer: The value was -18.00 mm.Hg.

Question: And the blood pressure afterwards ([3]; 1.00 mg/kg i.v.)?
Answer: Its blood pressure afterwards is 44.30 ± 0.90 mm.Hg.

Question: And the blood pressure previously ([3]; 1.00 mg/kg i.v.)?
Answer: The blood pressure previously was 62.30 ± 4.10 mm.Hg.

Question: And the “blood pressure Δ” value ([3]; 2.50 mg/kg i.v.)?
Answer: Its value is -28.00 mm.Hg.

Question: And the blood pressure afterwards ([3]; 2.50 mg/kg i.v.)?
Answer: The blood pressure afterwards was 33.30 ± 0.70 mm.Hg.

Question: What about the blood pressure previously ([3]; 2.50 mg/kg i.v.) of the same compound?
Answer: The blood pressure previously was 61.30 ± 4.90 mm.Hg.

Question: And the “blood pressure-lowering effectiveness compared with ISMN and ISDN” value [3]?
Answer: The value was “actions similar to those of ISDN”.

Question: And the blood pressure [6, 12]?
Answer: The blood pressure was 123.5 ± 7.3 mm.Hg.

Question: What about the “dp/dt (inotropism)” value [6, 12] of the same compound?
Answer: The value was 10625 ± 2083 mm.sec.

Question: What about the heart frequency [6, 12] of the same compound?
Answer: The heart frequency was 211.5 ± 19.3 min⁻¹.

Question: And the blood pressure ([6]; 10 min after admin.)?
Answer: Its blood pressure is 98.3 ± 6.2 mm.Hg.

Question: What about the “dp/dt (inotropism)” value ([6]; 10 min after admin.) of the same compound?
Answer: Its value is 8050 ± 1204 mm.sec.

Question: What about the heart frequency ([6]; 10 min after admin.) of the same compound?
Answer: The heart frequency was 209.5 ± 19.2 min⁻¹.

Question: And the “blood pressure Δ” value ([6]; 10 min versus 0 min)?
Answer: The value was -25.2 mm.Hg.

Question: What about the “dp/dt Δ” value ([6]; 10 min versus 0 min) of the same compound?
Answer: The value was -2575 mm.sec.

Question: And the blood pressure ([6]; 30 min after admin.)?
Answer: Its blood pressure is 94.8 ± 7.2 mm.Hg.

Question: And the “dp/dt (inotropism)” value ([6]; 30 min after admin.)?
Answer: The value was 7975 ± 1216 mm.sec.

Question: What about the heart frequency ([6]; 30 min after admin.) of the same compound?
Answer: The heart frequency was 212.5 ± 21.6 min⁻¹.

Question: What about the “blood pressure Δ” value ([6]; 30 min versus 0 min) of the same compound?
Answer: Its value is -28.7 mm.Hg.

Question: And the “dp/dt Δ” value ([6]; 30 min versus 0 min)?
Answer: Its value is -2650 mm.sec.

Question: What about the blood pressure ([6]; 60 min after admin.) of the same compound?
Answer: Its blood pressure is 93.8 ± 7.8 mm.Hg.

Question: And the “dp/dt (inotropism)” value ([6]; 60 min after admin.)?
Answer: The value was 8275 ± 309 mm.sec.

Question: What about the heart frequency ([6]; 60 min after admin.) of the same compound?
Answer: Its heart frequency is 225.0 ± 16.2 min⁻¹.

Question: What about the “blood pressure Δ” value ([6]; 60 min versus 0 min) of the same compound?
Answer: Its value is -29.7 mm.Hg.

Question: What about the “dp/dt Δ” value ([6]; 60 min versus 0 min) of the same compound?
Answer: The value was -2350 mm.sec.

Question: What about the blood pressure ([6]; 120 min after admin.) of the same compound?
Answer: The blood pressure was 101.3 ± 11.2 mm.Hg.

Question: And the “dp/dt (inotropism)” value ([6]; 120 min after admin.)?
Answer: The value was 7500 ± 1022 mm.sec.

Question: And the heart frequency ([6]; 120 min after admin.)?
Answer: Its heart frequency is 228.0 ± 15.6 min⁻¹.

Question: And the “blood pressure Δ” value ([6]; 120 min versus 0 min)?
Answer: Its value is -22.2 mm.Hg.

Question: And the “dp/dt Δ” value ([6]; 120 min versus 0 min)?
Answer: Its value is -3125 mm.sec.

Question: Which “Frequency of death with an intravenous dose of 200 mg/kg” value [4] does the source give for `O=C(O[C@H]1CO[C@H]2[C@@H]1OC[C@H]2O[N+](=O)[O-])c1cccnc1` [Example 7b, 1.4;3.6-Dianhydro-D-glucitol 2-nicotinate 5-nitrate] here?
Answer: Its value is 0/6.

Question: What about the LD50 at 24 h [5] of the same compound?
Answer: Its LD50 at 24 h is over 200 mg/kg.

Question: And the IC50 [2, 10]?
Answer: The IC50 was 20 µM.

Question: And the IC50 [2, 11]?
Answer: The IC50 was 44 µM.

Question: Which results are given for `O=C(O[C@@H]1CO[C@H]2[C@@H]1OC[C@H]2O[N+](=O)[O-])c1cccnc1` [Example 8, 1.4;3.6-Dianhydro-D-mannitol 2-nitrate 5-nicotinate]?
Answer: Frequency of death with an intravenous dose of 100 mg/kg [4]: 0/6; Frequency of death with an intravenous dose of 200 mg/kg [4]: 3/3; Evaluated LD50 -range ([4]; i.v., mice, as hydrochloride, 24 hours, 1440 min): > 100 mg/kg; LD50 at 24 h [5]: < 200 mg/kg
